Measured values as given in PubChem BioAssay (NCI).
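Abbreviation: GI50, concentration required for 50% inhibition of growth. The concentration for full growth arrest is given as TGI.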

Assays:
Assay in all cases: NCI-60 cell line screen, 384-well format
IGROV1 ovarian = tested on: IGROV1 ovarian
SNB-75 CNS = tested on: SNB-75 CNS
U251 glioblastoma = tested on: U251 glioblastoma
HL-60(TB) leukemia = tested on: HL-60(TB) leukemia
HT29 colon = tested on: HT29 colon
BT-549 breast = tested on: BT-549 breast
ACHN renal = tested on: ACHN renal
MALME-3M melanoma = tested on: MALME-3M melanoma
UACC-62 melanoma = tested on: UACC-62 melanoma
A498 renal = tested on: A498 renal
RPMI-8226 leukemia = tested on: RPMI-8226 leukemia
SNB-19 CNS = tested on: SNB-19 CNS
MOLT-4 leukemia = tested on: MOLT-4 leukemia
EKVX NSCLC = tested on: EKVX NSCLC
SF-539 CNS = tested on: SF-539 CNS
HOP-62 NSCLC = tested on: HOP-62 NSCLC
SR leukemia = tested on: SR leukemia
TK-10 renal = tested on: TK-10 renal
HS 578T breast = tested on: HS 578T breast
COLO 205 colon = tested on: COLO 205 colon
786-0 renal = tested on: 786-0 renal
OVCAR-8 ovarian = tested on: OVCAR-8 ovarian
K-562 leukemia = tested on: K-562 leukemia
CAKI-1 renal = tested on: CAKI-1 renal
DU-145 prostate = tested on: DU-145 prostate
HCC-2998 colon = tested on: HCC-2998 colon
T-47D breast = tested on: T-47D breast
NCI-H460 NSCLC = tested on: NCI-H460 NSCLC
SN12C renal = tested on: SN12C renal
HCT-116 colon = tested on: HCT-116 colon
SK-OV-3 ovarian = tested on: SK-OV-3 ovarian
PC-3 prostate = tested on: PC-3 prostate
NCI-H522 lung = tested on: NCI-H522 lung
NCI-H322M lung = tested on: NCI-H322M lung
SK-MEL-5 melanoma = tested on: SK-MEL-5 melanoma
NCI-H23 lung = tested on: NCI-H23 lung
A549 NSCLC = tested on: A549 NSCLC
MDA-MB-231 breast = tested on: MDA-MB-231 breast
MDA-MB-468 breast = tested on: MDA-MB-468 breast
CCRF-CEM leukemia = tested on: CCRF-CEM leukemia
RXF 393 renal = tested on: RXF 393 renal
SW-620 colon = tested on: SW-620 colon
OVCAR-4 ovarian = tested on: OVCAR-4 ovarian
OVCAR-3 ovarian = tested on: OVCAR-3 ovarian
SF-268 CNS = tested on: SF-268 CNS
NCI/ADR-RES ovarian = tested on: NCI/ADR-RES ovarian
M14 melanoma = tested on: M14 melanoma
NCI-H226 lung = tested on: NCI-H226 lung
SF-295 CNS = tested on: SF-295 CNS
UACC-257 melanoma = tested on: UACC-257 melanoma
UO-31 renal = tested on: UO-31 renal
KM12 colon = tested on: KM12 colon
LOX IMVI melanoma = tested on: LOX IMVI melanoma
MCF7 breast = tested on: MCF7 breast
SK-MEL-28 melanoma = tested on: SK-MEL-28 melanoma
HCT-15 colon = tested on: HCT-15 colon
HOP-92 NSCLC = tested on: HOP-92 NSCLC
MDA-MB-435 melanoma = tested on: MDA-MB-435 melanoma

Molecule `Cn1ncc(NC(=O)c2nc(-c3c(F)cccc3F)sc2N)c1N1CC[C@@H](N)[C@H](F)CC1` has a GI50 (IGROV1 ovarian) of 3.69 µM, a TGI (IGROV1 ovarian) of 13.7 µM and a GI50 (SNB-75 CNS) of 2.93 µM. The TGI (SNB-75 CNS) was 10.8 µM, the GI50 (U251 glioblastoma) was 6.23 µM and the TGI (U251 glioblastoma) was 18.7 µM. It also gave a GI50 (HL-60(TB) leukemia) of 1.51 µM, a TGI (HL-60(TB) leukemia) of 2.91 µM and a GI50 (HT29 colon) of 7.09 µM. For the same molecule, the TGI (HT29 colon) was 19.9 µM, the GI50 (BT-549 breast) was 1.72 µM and the TGI (BT-549 breast) was 5.44 µM. It also gave a GI50 (ACHN renal) of 3.25 µM, a TGI (ACHN renal) of 15.6 µM and a GI50 (MALME-3M melanoma) of 2.58 µM. The TGI (MALME-3M melanoma) was 12.7 µM, the GI50 (UACC-62 melanoma) was 3.34 µM and the TGI (UACC-62 melanoma) was 11.7 µM. The GI50 (A498 renal) was 3.02 µM, the TGI (A498 renal) was 13.7 µM and the GI50 (RPMI-8226 leukemia) was 0.0454 µM. For the same molecule, the TGI (RPMI-8226 leukemia) was 4.12 µM, the GI50 (SNB-19 CNS) was 12.1 µM and the TGI (SNB-19 CNS) was 26.1 µM. For the same molecule, the GI50 (MOLT-4 leukemia) was 1.61 µM, the TGI (MOLT-4 leukemia) was 2.98 µM and the GI50 (EKVX NSCLC) was 3.8 µM. It also gave a TGI (EKVX NSCLC) of 17.5 µM, a GI50 (SF-539 CNS) of 3.21 µM and a TGI (SF-539 CNS) of 13.3 µM. It also gave a GI50 (HOP-62 NSCLC) of 5.55 µM, a TGI (HOP-62 NSCLC) of 18.3 µM and a GI50 (SR leukemia) of 0.0471 µM. The TGI (SR leukemia) was 0.602 µM, the GI50 (TK-10 renal) was 2.88 µM and the TGI (TK-10 renal) was 15.4 µM. It also gave a GI50 (HS 578T breast) of 2.83 µM, a TGI (HS 578T breast) of 5.52 µM and a GI50 (COLO 205 colon) of 5.42 µM. The TGI (COLO 205 colon) was 19 µM, the GI50 ([…]-0 renal) was 4.22 µM and the TGI (786-0 renal) was 14.8 µM. It also gave a GI50 (OVCAR-8 ovarian) of 7.11 µM, a TGI (OVCAR-8 ovarian) of 19.7 µM and a GI50 (K-562 leukemia) of 2.19 µM. For the same molecule, the TGI (K-562 leukemia) was 10.6 µM, the GI50 (CAKI-1 renal) was 1.16 µM and the TGI (CAKI-1 renal) was 4.92 µM. It also gave a GI50 (DU-145 prostate) of 4.19 µM, a TGI (DU-145 prostate) of 15.7 µM and a GI50 (HCC-2998 colon) of 8.83 µM. The TGI (HCC-2998 colon) was 21.2 µM, the GI50 (T-47D breast) was 15.3 µM and the TGI (T-47D breast) was 30 µM. For the same molecule, the GI50 (NCI-H460 NSCLC) was 3.49 µM, the TGI (NCI-H460 NSCLC) was 12.6 µM and the GI50 (SN12C renal) was 2.55 µM. It also gave a TGI (SN12C renal) of 11.1 µM, a GI50 (HCT-116 colon) of 4.01 µM and a TGI (HCT-116 colon) of 15.6 µM. It also gave a GI50 (SK-OV-3 ovarian) of 1.83 µM, a TGI (SK-OV-3 ovarian) of 9.95 µM and a GI50 (PC-3 prostate) of 3.23 µM. The TGI (PC-3 prostate) was 12.9 µM, the GI50 (NCI-H522 lung) was 2.49 µM and the TGI (NCI-H522 lung) was 9.18 µM. The GI50 (NCI-H322M lung) was 6.85 µM, the TGI (NCI-H322M lung) was 21.3 µM and the GI50 (SK-MEL-5 melanoma) was 1.35 µM. It also gave a TGI (SK-MEL-5 melanoma) of 12.2 µM, a GI50 (NCI-H23 lung) of 10.9 µM and a TGI (NCI-H23 lung) of 23 µM. It also gave a GI50 (A549 NSCLC) of 4.22 µM, a TGI (A549 NSCLC) of 15.7 µM and a GI50 (MDA-MB-231 breast) of 4.31 µM. The TGI (MDA-MB-231 breast) was 16 µM, the GI50 (MDA-MB-468 breast) was 2.8 µM and the TGI (MDA-MB-468 breast) was 11.6 µM. It also gave a GI50 (CCRF-CEM leukemia) of 1.48 µM, a TGI (CCRF-CEM leukemia) of 3.11 µM and a GI50 (RXF 393 renal) of 3.15 µM. The TGI (RXF 393 renal) was 13.1 µM, the GI50 (SW-620 colon) was 3.29 µM and the TGI (SW-620 colon) was 12.2 µM. It also gave a GI50 (OVCAR-4 ovarian) of 18.9 µM, a TGI (OVCAR-4 ovarian) of 34.2 µM and a GI50 (OVCAR-3 ovarian) of 3.89 µM. The TGI (OVCAR-3 ovarian) was 14.9 µM, the GI50 (SF-268 CNS) was 3.47 µM and the TGI (SF-268 CNS) was 14.2 µM. For the same molecule, the GI50 (NCI/ADR-RES ovarian) was 16.5 µM, the TGI (NCI/ADR-RES ovarian) was 33.2 µM and the GI50 (M14 melanoma) was 2.44 µM. For the same molecule, the TGI (M14 melanoma) was 14.3 µM, the GI50 (NCI-H226 lung) was 2.22 µM and the TGI (NCI-H226 lung) was 9.62 µM. It also gave a GI50 (SF-295 CNS) of 5.52 µM, a TGI (SF-295 CNS) of 17.8 µM and a GI50 (UACC-257 melanoma) of 7.52 µM. For the same molecule, the TGI (UACC-257 melanoma) was 20 µM, the GI50 (UO-31 renal) was 1.96 µM and the TGI (UO-31 renal) was 5.94 µM. For the same molecule, the GI50 (KM12 colon) was 6.59 µM, the TGI (KM12 colon) was 19.3 µM and the GI50 (LOX IMVI melanoma) was 4.33 µM. The TGI (LOX IMVI melanoma) was 14.5 µM, the GI50 (MCF7 breast) was 2.82 µM and the TGI (MCF7 breast) was 10.9 µM. The GI50 (SK-MEL-28 melanoma) was 10.4 µM, the TGI (SK-MEL-28 melanoma) was 22.2 µM and the GI50 (HCT-15 colon) was 5.03 µM. For the same molecule, the TGI (HCT-15 colon) was 17.5 µM, the GI50 (HOP-92 NSCLC) was 3.18 µM and the TGI (HOP-92 NSCLC) was 13 µM. It also gave a GI50 (MDA-MB-435 melanoma) of 3.2 µM and a TGI (MDA-MB-435 melanoma) of 15.4 µM.
